Results as given in patent US11506670B2, “Method of genome-wide direct identification of electrophile-sensing targets” (Cornell University, priority 2018, dated 2022).
Several values for one entry are separate records, joined by “and”; a condition that tells them apart may be missing. Equal entries are not always repeated.

Columns and labels:
[1] = system: ten HaloTag proteins in HEK-293 cells; assay: T-REX gel-based screen of Halo ORF clones for HNE-sensitive targets; assay type: cell-based
Method: Individual wells in a 48-well plate contained live HEK-293 cells ectopically expressing a unique HaloTagged gene of interest. The cells were subjected to T-REX™ delivery-HNE(alkyne) targeting on demand. Post cell lysis, all samples were treated with TEV protease and subsequently subjected to Click coupling reaction with Cy5 azide. Probing with Halo antibody allowed evaluation of expression level (and/or solubility under the lysis conditions used). […] For example, RRM1, PRKCD, p53R2, and Keap1 (positive control) had roughly similar expression levels. Only RRM1 and Keap1 were HNE-sensitive although all four targets have been previously identified to be potentially redox/HNE-sensitive (Holmstrom et al., “Cellular Mechanisms and Physiological Consequences of Redox-Dependent Signalling,” Nat. Rev. Mol. Cell. Biol. 15:411-21 (2014); Jacobs et al., “Systems Analysis of Protein Modification and Cellular Responses Induced by Electrophile Stress,” Acc. Chem. Res. 43:673-83 (2010); Delmastro-Greenwood et al., “Redox-Dependent Anti-Inflammatory Signaling Actions of Unsaturated Fatty Acids,” Annu. Rev. Physiol. 76:79-105 (2014); Crunkhorn S., “Deal Watch: Abbott Boosts Investment in NRF2 Activators for Reducing Oxidative Stress,” Nat. Rev. Drug Discov. […]

Ube2V2 = Ube2V2 (Homo sapiens, UniProt Q15819); assay: T-REX targeted delivery efficiency, in-gel fluorescence (Cy5 Click); assay type: cell-based; design: the gene of interest (GOI) was PCR-amplified out from the original plasmid; expressed in transfected cells; host or cells: HEK 293T; conditions: HEK293T, Halo-Ube2V2
Chain of Ube2V2 (Q15819 whole entry): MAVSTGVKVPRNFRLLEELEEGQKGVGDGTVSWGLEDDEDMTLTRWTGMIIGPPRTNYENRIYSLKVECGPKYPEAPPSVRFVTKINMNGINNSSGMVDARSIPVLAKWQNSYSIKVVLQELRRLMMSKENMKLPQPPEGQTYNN
Method: HEK 293T cells were maintained in 1×MEM+ Glutamax™ media supplemented with 10% FBS, 1×NEAA, 1× sodium pyruvate and 1× Pen-Strep. Cells were grown in a humidified, 5% CO2 incubator at 37° C. For in-gel fluorescence analysis and western blot, ˜0.7-0.8×10^6 HEK 293T cells were seeded in 8 cm^2 tissue culture dishes. 24 h later, cells were transfected using TransIT-2020 transfection reagent per the manufacturer's recommendation. Subsequent steps were performed under dim light. 24-36 h post transfection, monolayer of cells were treated with 25 μM Ht-PreHNE in serum-free media and incubated for 2.5 h. Cells were gently rinsed with serum-free media three times every 30 min over the next 1.5 h. Meanwhile, UV lamps were turned on 10 min prior to UV irradiation time. For samples designated for light exposure, lids were removed from the dishes and cells were placed under 365 nm UV light for 5-8 min. The cells were harvested, washed two times with ice-cold PBS and frozen in liquid nitrogen.
All steps were performed in dark or under dim light. Cells from 8 cm^2 plates were lysed in 30 μL buffer containing 50 mM HEPES (pH 7.6), 150 mM NaCl, 1% Nonidet P-40, 1× Roche cOmplete, mini, EDTA-free protease inhibitor cocktail, and 0.3 mM TCEP by rapid freeze-thaw (×3). […] Protein concentration of the clarified lysate was determined using Bradford assay. […]

CCCCCC(O)/C=C/C=O (centres unmarked) [HNE, 4-hydroxynonenal]
proteins modified by HNE in the screen besides positive control Keap1 [1]: RRM1 and HSPB7
T-REX targeted delivery efficiency (Ube2V2): 15±6% and 15%
